The target in the experiment is T1, HDAC6 enzyme (Homo sapiens, UniProt Q9UBN7).
T1 construct: prepared by transducing full length HDAC1 and HDAC6 genes into Sf-9 insect cells; GST; purchased SignalChem; host or cells: Sf-9 insect cells
T1 sequence (Q9UBN7 1-1215): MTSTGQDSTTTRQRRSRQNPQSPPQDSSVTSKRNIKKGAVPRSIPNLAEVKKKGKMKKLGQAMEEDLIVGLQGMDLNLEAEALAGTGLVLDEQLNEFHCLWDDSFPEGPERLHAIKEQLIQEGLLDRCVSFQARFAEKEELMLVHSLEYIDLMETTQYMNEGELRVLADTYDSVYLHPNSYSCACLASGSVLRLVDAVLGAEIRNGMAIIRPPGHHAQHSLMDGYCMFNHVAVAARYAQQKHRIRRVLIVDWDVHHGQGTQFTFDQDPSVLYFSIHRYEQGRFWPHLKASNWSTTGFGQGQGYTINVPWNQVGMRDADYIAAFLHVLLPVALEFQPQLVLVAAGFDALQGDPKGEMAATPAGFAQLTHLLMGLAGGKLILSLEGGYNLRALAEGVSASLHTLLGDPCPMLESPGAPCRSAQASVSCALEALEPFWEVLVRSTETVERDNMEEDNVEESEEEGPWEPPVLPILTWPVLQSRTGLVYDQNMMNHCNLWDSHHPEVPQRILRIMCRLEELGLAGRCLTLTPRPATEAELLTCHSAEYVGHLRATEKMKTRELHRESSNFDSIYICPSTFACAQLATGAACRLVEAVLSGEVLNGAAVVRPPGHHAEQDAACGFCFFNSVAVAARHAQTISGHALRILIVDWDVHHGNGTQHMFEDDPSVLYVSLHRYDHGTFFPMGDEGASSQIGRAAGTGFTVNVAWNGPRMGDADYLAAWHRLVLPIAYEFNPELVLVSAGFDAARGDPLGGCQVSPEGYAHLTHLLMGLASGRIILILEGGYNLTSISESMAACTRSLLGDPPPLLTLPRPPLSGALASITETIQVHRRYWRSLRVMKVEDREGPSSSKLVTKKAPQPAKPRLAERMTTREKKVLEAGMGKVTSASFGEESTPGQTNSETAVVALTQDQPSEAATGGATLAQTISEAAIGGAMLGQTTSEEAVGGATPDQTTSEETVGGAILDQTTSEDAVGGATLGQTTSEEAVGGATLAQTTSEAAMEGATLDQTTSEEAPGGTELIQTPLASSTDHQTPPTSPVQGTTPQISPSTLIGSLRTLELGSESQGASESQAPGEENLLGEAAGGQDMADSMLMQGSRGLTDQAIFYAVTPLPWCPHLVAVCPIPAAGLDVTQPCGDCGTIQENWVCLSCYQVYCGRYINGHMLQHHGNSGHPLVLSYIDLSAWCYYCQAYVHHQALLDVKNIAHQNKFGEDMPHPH
The experiment is described as follows: HDAC6 enzyme inhibitory assay (HDAC-Glo I/II Assay kit). In kind it is biochemical. The settings on record: 1 μM test compound; read-out: HDAC6 inhibitory rate (%) (1 μM). The procedure, abridged: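 Relative activity was calculated from luminescence, with wells lacking enzyme defined as 100% inhibition. The enzymes were full-length HDAC1 or HDAC6 from Sf-9 cells, preincubated with test compound for 60 min before a 20-min substrate-developer reaction at room temperature.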

In the case of `Cc1ccsc1C(=O)N1CCOC[C@@H]1CNC(=O)c1ccc(-c2noc(C(F)(F)F)n2)cn1` [Example 198, N-(((3S)-4-((3-methyl-2-thienyl)carbonyl)morpholin-3-yl)methyl)-5-(5-(trifluoromethyl)-1,2,4-oxadiazol-3-yl)pyridine-2-carboxamide], the inhibition at 1 µM was 99%.

In the case of `O=C(NC[C@H]1COCCN1C(=O)C1CCc2ccccc2O1)c1ccc(-c2noc(C(F)(F)F)n2)cn1` (stereo partly drawn) [Example 199, N-(((3S)-4-(3,4-dihydro-2H-chromen-2-ylcarbonyl)morpholin-3-yl)methyl)-5-(5-(trifluoromethyl)-1,2,4-oxadiazol-3-yl)pyridine-2-carboxamide], the inhibition at 1 µM was 94%.

As for `O=C(NC[C@H]1COCCN1C(=O)c1cc2ccccc2o1)c1ccc(-c2noc(C(F)(F)F)n2)cn1` [Example 200, N-(((3S)-4-(1-benzofuran-2-ylcarbonyl)morpholin-3-yl)methyl)-5-(5-(trifluoromethyl)-1,2,4-oxadiazol-3-yl)pyridine-2-carboxamide], the inhibition at 1 µM turned out to be 91%.

In the case of `O=C(NC[C@H]1COCCN1C(=O)Cc1cccs1)c1ccc(-c2noc(C(F)(F)F)n2)cn1` [Example 201, N-(((3S)-4-(2-thienylacetyl)morpholin-3-yl)methyl)-5-(5-(trifluoromethyl)-1,2,4-oxadiazol-3-yl)pyridine-2-carboxamide], the inhibition at 1 µM came to 95%.

For the compound `O=C(NC[C@H]1COCCN1C(=O)CCc1ccccc1)c1ccc(-c2noc(C(F)(F)F)n2)cn1` [Example 203, N-(((3S)-4-(3-phenylpropanoyl)morpholin-3-yl)methyl)-5-(5-(trifluoromethyl)-1,2,4-oxadiazol-3-yl)pyridine-2-carboxamide], the inhibition at 1 µM came out at 95%.

In the case of `O=C(NCC1COCCN1C(=O)c1cccc(F)c1)c1ccc(-c2noc(C(F)(F)F)n2)s1` (centres unmarked) [Example 212, N-((4-(3-fluorobenzoyl)morpholin-3-yl)methyl)-5-(5-(trifluoromethyl)-1,2,4-oxadiazol-3-yl)thiophene-2-carboxamide], the inhibition at 1 µM is 97%.

With `O=C(NCC1COCCN1C(=O)c1cc(F)cc(F)c1)c1ccc(-c2noc(C(F)(F)F)n2)s1` (centres unmarked) [Example 213, N-((4-(3,5-difluorobenzoyl)morpholin-3-yl)methyl)-5-(5-(trifluoromethyl)-1,2,4-oxadiazol-3-yl)thiophene-2-carboxamide], the inhibition at 1 µM came out at 95%.

Consider `O=C(NCC1COCCN1C(=O)c1ccccc1Cl)c1ccc(-c2noc(C(F)(F)F)n2)s1` (centres unmarked) [Example 214, N-((4-(2-chlorobenzoyl)morpholin-3-yl)methyl)-5-(5-(trifluoromethyl)-1,2,4-oxadiazol-3-yl)thiophene-2-carboxamide], for which the inhibition at 1 µM was 96%.

As for `O=C(NCC1COCCN1C(=O)c1cccc(Cl)c1)c1ccc(-c2noc(C(F)(F)F)n2)s1` (centres unmarked) [Example 215, N-((4-(3-chlorobenzoyl)morpholin-3-yl)methyl)-5-(5-(trifluoromethyl)-1,2,4-oxadiazol-3-yl)thiophene-2-carboxamide], the inhibition at 1 µM stood at 94%.

As for `O=C(NCC1COCCN1C(=O)c1ccc(Cl)cc1)c1ccc(-c2noc(C(F)(F)F)n2)s1` (centres unmarked) [Example 216, N-((4-(4-chlorobenzoyl)morpholin-3-yl)methyl)-5-(5-(trifluoromethyl)-1,2,4-oxadiazol-3-yl)thiophene-2-carboxamide], the inhibition at 1 µM was 93%.

For `N#Cc1ccccc1C(=O)N1CCOCC1CNC(=O)c1ccc(-c2noc(C(F)(F)F)n2)s1` (centres unmarked) [Example 217, N-((4-(2-cyanobenzoyl)morpholin-3-yl)methyl)-5-(5-(trifluoromethyl)-1,2,4-oxadiazol-3-yl)thiophene-2-carboxamide], the inhibition at 1 µM turned out to be 94%.

`N#Cc1cccc(C(=O)N2CCOCC2CNC(=O)c2ccc(-c3noc(C(F)(F)F)n3)s2)c1` (centres unmarked) [Example 218, N-((4-(3-cyanobenzoyl)morpholin-3-yl)methyl)-5-(5-(trifluoromethyl)-1,2,4-oxadiazol-3-yl)thiophene-2-carboxamide]: the inhibition at 1 µM came to 91%.

Turning to `N#Cc1ccc(C(=O)N2CCOCC2CNC(=O)c2ccc(-c3noc(C(F)(F)F)n3)s2)cc1` (centres unmarked) [Example 219, N-((4-(4-cyanobenzoyl)morpholin-3-yl)methyl)-5-(5-(trifluoromethyl)-1,2,4-oxadiazol-3-yl)thiophene-2-carboxamide], the inhibition at 1 µM was determined as 90%.

For `O=C(NCC1COCCN1C(=O)c1ccccc1N1CCOCC1)c1ccc(-c2noc(C(F)(F)F)n2)s1` (centres unmarked) [Example 220, N-((4-(2-(morpholin-4-yl)benzoyl)morpholin-3-yl)methyl)-5-(5-(trifluoromethyl)-1,2,4-oxadiazol-3-yl)thiophene-2-carboxamide], the inhibition at 1 µM was found to be 94%.

On to `O=C(NCC1COCCN1C(=O)c1ccccc1-c1ccccc1)c1ccc(-c2noc(C(F)(F)F)n2)s1` (centres unmarked) [Example 221, N-((4-(biphenyl-2-ylcarbonyl)morpholin-3-yl)methyl)-5-(5-(trifluoromethyl)-1,2,4-oxadiazol-3-yl)thiophene-2-carboxamide], for which the inhibition at 1 µM is 91%.

With `O=C(NCC1COCCN1C(=O)c1ccc(-c2ccccc2)cc1)c1ccc(-c2noc(C(F)(F)F)n2)s1` (centres unmarked) [Example 223, N-((4-(biphenyl-4-ylcarbonyl)morpholin-3-yl)methyl)-5-(5-(trifluoromethyl)-1,2,4-oxadiazol-3-yl)thiophene-2-carboxamide], the inhibition at 1 µM is 93%.

Regarding `O=C(NCC1COCCN1C(=O)c1ccccn1)c1ccc(-c2noc(C(F)(F)F)n2)s1` (centres unmarked) [Example 224, N-((4-(pyridin-2-ylcarbonyl)morpholin-3-yl)methyl)-5-(5-(trifluoromethyl)-1,2,4-oxadiazol-3-yl)thiophene-2-carboxamide], the inhibition at 1 µM stood at 92%.

With `O=C(NCC1COCCN1C(=O)c1cccnc1)c1ccc(-c2noc(C(F)(F)F)n2)s1` (centres unmarked) [Example 225, N-((4-(pyridin-3-ylcarbonyl)morpholin-3-yl)methyl)-5-(5-(trifluoromethyl)-1,2,4-oxadiazol-3-yl)thiophene-2-carboxamide], the inhibition at 1 µM was 92%.

Consider `O=C(NCC1COCCN1C(=O)c1ccncc1)c1ccc(-c2noc(C(F)(F)F)n2)s1` (centres unmarked) [Example 226, N-((4-isonicotinoylmorpholin-3-yl)methyl)-5-(5-(trifluoromethyl)-1,2,4-oxadiazol-3-yl)thiophene-2-carboxamide], for which the inhibition at 1 µM was found to be 95%.

Take `Cc1cc(C(=O)N2CCOCC2CNC(=O)c2ccc(-c3noc(C(F)(F)F)n3)s2)ccn1` (centres unmarked) [Example 227, N-((4-(2-methylisonicotinoyl)morpholin-3-yl)methyl)-5-(5-(trifluoromethyl)-1,2,4-oxadiazol-3-yl)thiophene-2-carboxamide]: the inhibition at 1 µM came out at 91%.

In the case of `Cn1ccnc1C(=O)N1CCOCC1CNC(=O)c1ccc(-c2noc(C(F)(F)F)n2)s1` (centres unmarked) [Example 228, N-((4-((1-methyl-1H-imidazol-2-yl)carbonyl)morpholin-3-yl)methyl)-5-(5-(trifluoromethyl)-1,2,4-oxadiazol-3-yl)thiophene-2-carboxamide], the inhibition at 1 µM was found to be 77%.

For `Cn1nccc1C(=O)N1CCOCC1CNC(=O)c1ccc(-c2noc(C(F)(F)F)n2)s1` (centres unmarked) [Example 229, N-((4-((1-methyl-1H-pyrazol-5-yl)carbonyl)morpholin-3-yl)methyl)-5-(5-(trifluoromethyl)-1,2,4-oxadiazol-3-yl)thiophene-2-carboxamide], the inhibition at 1 µM turned out to be 97%.

Take `Cc1cc(C(=O)N2CCOCC2CNC(=O)c2ccc(-c3noc(C(F)(F)F)n3)s2)n(C)n1` (centres unmarked) [Example 230, N-((4-((1,3-dimethyl-1H-pyrazol-5-yl)carbonyl)morpholin-3-yl)methyl)-5-(5-(trifluoromethyl)-1,2,4-oxadiazol-3-yl)thiophene-2-carboxamide]: the inhibition at 1 µM turned out to be 88%.

(Values after patent US10081624B2, “Heterocyclic compound” (Takeda Pharmaceutical Company Limited, priority 2014, dated 2018).)
